Tests used:
[1] = tested on: Plasmodium berghei anka; assay: Treatment and prophylaxis of malaria in infected mice, model of cerebral malaria (Example 12); assay type: in vivo; settings: 10mg DHA/kg/day, ICR female mice; for mice survived: treatment regimen (from day 2 after infection, 4 days)
Experimental: Experiments were carried out in vivo in ICR female mice infected with 10^6 erythrocytes parasitized Plasmodium berghei anka, a model of cerebral malaria with striking similarities to the human disease. Infections were monitored using giemsa-stained thin blood smears prepared from tail blood. The animals were treated under isoflurane anesthesia with 10mg DHA/kg/day in a two divided daily doses by two dosage regimens: prophylaxis regimen- starting at 2 days before the infection for a total of 6 days; treatment regimen- starting on day 2 after infection (parasitemia first detected) for a total of 4 days. Mice were either treated by the intranasal administration or by the i.p. injection containing the same DHA doses. Controls included placebo (delivery carrier only) and untreated infected animals. Experiments were conducted in accordance with institutional guidelines for animal care.

[2] = tested on: Female Balb/c mice; assay: Writhing test in mice, writhing induced by IP acetic acid (Example 13); assay type: in vivo
Experimental: Experiments 1: The experiments were carried out on Female Balb/c mice (21-26g). Two experimental groups were used: control (untreated) (n=6) and treated group (n=6). […] Half an hour after nasal application, each animal in treated and control groups was IP administered with acetic acid 0.6% (10 ml/kg) and individually housed in cage with a smooth flat floor. Antinociception effect was recorded by counting the number of writhes 5 minutes after injection of acetic acid for period of 10 minutes. A writhe is indicated by abdominal constriction and stretching of at least one hind limb.
Experiment 2: The experiment was carried out on Female Balb/c mice (21-26g). Two experimental groups were used: control (untreated) (n=6) and treated group (n=6). […] Immediately after nasal application (t=0), each animal in treated and control groups was IP administered with acetic acid 0.6% (10 ml/kg) and individually housed in cage with a smooth flat floor. Antinociception was recorded by counting the number of writhes 5 minutes after injection of acetic acid for period of 10 minutes.
Experiment 3: The experiments were carried out on Female Balb/c mice (21-26g). Three experimental groups were used: control (untreated) (n=4), mice intranasally administered with the Diazepam IN vesicular composition (2.8µl in each nostril = diazepam dose of 5mg/kg animal) (n=4), and mice subcutaneously administered with the Diazepam solution 0.125 % at dose of 5mg/kg animal (n=4). […] Simultaneously, each animal in treated and control groups was IP administered with acetic acid 0.6% (10 ml/kg) and individually housed in cage with a smooth flat floor. Antinociception was recorded by counting the number of writhes 5 minutes after injection of acetic acid for period of 10 minutes.

[3] = tested on: nasal mucosa; assay: Transport of fluorescent probe across nasal mucosa after in vivo administration, CLS microscopy (Example 15); settings: composition of the invention with 0.05% Rhodamine B, 100µL to the right nostril of rats, 1/2 hour
Experimental: A stock solution of Rhodamine B (2mg/mL) was prepared in water. 50mg of phospholipid were dissolved in 200 mg ethanol. […] The composition is stirred for additional 5 min. The composition is described in Table IV.

C[C@H]1[C@@H](O)O[C@@H]2O[C@@]3(C)CC[C@H]4[C@H](C)CC[C@@H]1[C@@]24OO3 [DHA, dihydroartemisinin]
mice in which parasites appeared ([1]; prophylaxis regimen, i.p. injection): 74%
mice survived ([1]; i.p. injection): 19%
mice survived ([1]; intranasal): 75%

CN1C(=O)CN=C(c2ccccc2)c2cc(Cl)ccc21 [diazepam, 7-chloro-1,3-dihydro-1-methyl-5-phenyl-2H-1,4-benzo-diazepin-2-one]
writhing episodes (number of writhes) ([2]; Experiment 1: intranasal vesicular composition, 5mg/kg, 0.5 h before acetic acid injection, versus untreated control): efficiently prevented writhing episodes
writhing episodes (number of writhes) ([2]; Experiment 2: intranasal vesicular composition, 5mg/kg, simultaneously with acetic acid injection, versus untreated control): efficient in treating writhing episodes
writhing episodes (number of writhes) ([2]; Experiment 3: intranasal vesicular composition 5mg/kg versus subcutaneous diazepam solution 5mg/kg, simultaneously with acetic acid injection): significantly more efficient in treating writhing episodes as compared to the same dose of the drug administered subcutaneously

CCN(CC)c1ccc2c(-c3ccccc3C(=O)O)c3ccc(=[N+](CC)CC)cc-3oc2c1.[Cl-] [rhodamine B, Rhodamine B]
transport across the nasal mucosa [3]: efficiently delivered

Reference: EP1933809B1, “COMPOSITIONS FOR NASAL DELIVERY” (YISSUM RESEARCH DEVELOPMENT COMPANY OF THE HEBREW …, priority 2005, dated 2007)
